Assay results taken from patent US4992470A, “Method of enhancing immune response of mammals” (Iowa State University Research Foundation, Inc., priority 1990, dated 1991).

Test system: isolated lymphocytes
Test: HMB effects on lymphocyte function in lambs (ex vivo mitogen-stimulated blastogenesis after feeding)
Procedure: Animals and Experimental Design. Three sets of twin lambs were housed individually in fiberglass pens. Animals were randomly assigned to control or HMB diets, using a standard basal diet with and without 0.05% HMB.
Blood Sampling and Lymphocyte Preparation. In the first experiment, animals were bled for lymphocyte blastogenesis assays and T-cell subset analysis 38, 45, and 52 days after dietary treatments began. Blood (50 ml) was collected, aseptically, via jugular venepuncture into 10 ml acid-citrate-dextrose anticoagulant (44 g trisodium citrate, 16 g citric acid and 50 g dextrose per 1 of triple-distilled water). Blood was centrifuged, the buffy coat removed, and 1 volume of buffy coat was diluted with 0.5 volume of plasma which was added to 2 volumes of Sepracell-MN (Sepratech Corporation, Oklahoma City, Okla.). After further centrifugation at 1500 x g for 25 min, the mononuclear layer was removed and washed twice with Hanks' balanced salt solution (HBSS; Gibco, Grand Island, N.Y.) by centrifuging at 150 x g for 15 min. The remaining white blood cells were resuspended in HBSS, and the total number of white blood cells was determined by using an automated cell counter (Coulter Electronics, Hialeah, Fla.). The concentration of the cells was adjusted to 1×20^6 " cells/ml with HBSS.
Lymphocyte Blastogenesis Determinations. Blastogenesis assays were performed on isolated lymphocytes by using a 3-d culture procedure as described previously. Briefly, isolated lymphocytes were cultured in microtiter plates with 2×10^5 " cells in 0.15 ml of culture medium/well. Culture medium consisted of RPMI media-1640 (Gibco, Grand Island, N.Y.) containing 15% heat-inactivated fetal bovine serum and 1% antibiotic-antimycotic solution (Gibco, Grand Island, N.Y.). Unstimulated and mitogen-stimulated cultures were assayed in triplicate. Mitogens used were phytohemagglutinin-P (PHA), concanavalin A (ConA) and pokeweed mitogen (PWM). PHA was purchased from Difco Laboratories, Detroit, MI; ConA from Miles Laboratories, Elkhart, IN; and PWM from Gibco, New York, N.Y. Microtiter plates were incubated at 37° C. in a humidified 5% CO2 atmosphere. After 48 h, 0.25 uCi of ^3 H-thymidine (New England Nuclear, Boston, Mass.) was added to each well. Eighteen hours later, the cultures were harvested onto glass-fiber filters with an automated sample harvester (Flow Laboratories, Rockville, Mo.), filters were placed in 10 ml CytoScint scintillation solution (ICN Biomedicals, Irvine, CA), and radioactivity was counted in a liquid scintillation counter. This procedure is similar to that described by Kuhlman, et al., J. Nutr., 118:1564-1569.

[1] = Before Treatment (baseline of HMB group)

Compound: CC(C)(O)CC(=O)O [HMB, β-hydroxy-β-methyl butyric acid]
- Decays Per Min of 3H Thymidine Incorporated into Isolated Lymphocytes, PHA Stimulation (After Treatment, diet with 0.05% HMB, control 15,000): 18,000 Decays Per Min
- Decays Per Min of 3H Thymidine Incorporated into Isolated Lymphocytes, PWM Stimulation (After Treatment, diet with 0.05% HMB, control 18,000): 25,000 Decays Per Min
- Decays Per Min of 3H Thymidine Incorporated into Isolated Lymphocytes, ConA Stimulation (After Treatment, diet with 0.05% HMB, control 19,000): 21,000 Decays Per Min
- Decays Per Min of 3H Thymidine Incorporated into Isolated Lymphocytes, ConA Stimulation [1]: 41,000 Decays Per Min
- Decays Per Min of 3H Thymidine Incorporated into Isolated Lymphocytes, PHA Stimulation [1]: 23,000 Decays Per Min
- Decays Per Min of 3H Thymidine Incorporated into Isolated Lymphocytes, PWM Stimulation [1]: 21,000 Decays Per Min
- Change in 3H Thymidine incorporation, PWM Stimulation (after minus before treatment, change in control -14,000): +4,000 Decays Per Min
- Change in 3H Thymidine incorporation, PHA Stimulation (after minus before treatment, change in control -22,000): -5,000 Decays Per Min
- Change in 3H Thymidine incorporation, ConA Stimulation (after minus before treatment, change in control -29,000): -20,000 Decays Per Min
- Effect on decline in lymphocyte function (in words) (lambs, 0.05% HMB diet): tended to effect the decline in lymphocyte function
